Measurements as given in patent US8198469B2, “Crystalline forms of tigecycline and processes for preparation thereof” (Teva Pharmaceutical Industries Ltd., priority 2006, dated 2012).

Tests used:
Assay type in all cases: physicochemical
[1] = Polymorphic transition due to heating in oven, solid analyzed by XRD
Procedure: (§1) X-Ray powder diffraction data were obtained by using methods known in the art, using a SCINTAG powder X-Ray diffractometer model X'TRA equipped with a solid-state detector. A Copper radiation of 1.5418 Å was used. A round aluminum sample holder with zero background was used. The scanning parameters included: range: 20 to 40° 2θ; scan mode: continuous scan; step size: 0.05°. The rate for Form XX [FIG. 16] was 3°/min using spin mode while the remaining crystalline forms were 5°/min using spin mode. All peak positions are within ±0.2 degrees two theta.
Tigecycline Form X was placed in oven at a temperature of between about 50-150° C. for about 0.5-2 hr (for example: 60 for 2 hr, 140° C. for 1 hr).
Tigecycline Form XI was placed in oven at a temperature of between about 50-80° C. for about 1-2 hr (for example: 60 for 2 hr).
Tigecycline Form XVII was placed in oven at a temperature of between about 50-70° C. for about 1-2 hr (for example: 60 for 2 hr).
Tigecycline Form XVII was placed in oven at a temperature of between about 90-110° C. for about 0.5-1 hr (for example: 100 for 0.5 hr).
Tigecycline Form XVIII was placed in oven at a temperature of between about 120-150° C. for about 0.5-1 hr (for example: 140 for 1 hr).
Tigecycline Form XXIV was placed in oven at a temperature of between about 110-140° C. for about 0.5-1 hr (for example: 120 for 0.5 hr, 140° C. for 1 hr).

[2] = Vacuum drying of the solid, form re-analyzed by XRD; conditions: for Solid form after vacuum drying: dried under vacuum, temperature and time not stated; for Solid form by XRD after drying: overnight at 40° C. under vacuum
Procedure: as §1
Tigecycline sample was dissolved in 20 volumes of hot iso-propanol. The solution thus obtained was allowed to cool at ambient temperature and then further cooled at 0-5° C. for about half an hour. The resulted suspension was filtered and the solid air-dried on the filter to afford Tigecycline of Form XII. The material was further dried overnight at 40° C. under vacuum without affecting the polymorphs, i.e. the vacuum dried Tigecycline was still identified as Form XII. The sizes of the Tigecycline Form XII crystals were less than 300 μm.
Tigecycline sample was dissolved in 20 volumes of n-propanol or 40 volumes of hot ethanol. The solution thus obtained was allowed to cool at ambient temperature and then further cooled at 0-5° C. for about half an hour. The resulted suspension was filtered and the solid air-dried on the filter to afford Tigecycline Form XIII. The material was further dried overnight under vacuum at 40° C. without affecting the polymorphs, i.e. the vacuum dried Tigecycline was still identified as Form XIII. The sizes of the Tigecycline Form XIII crystals were less than 300 μm.
2 grams of Tigecycline was dissolved in 440 mL of DDW and pH of the mixture was adjusted at 7.38 and 60 mL of THF were then added. The resulted solution was extracted 6 times with 60 mL portions of dichloromethane while pH is carefully controlled at 7.2-7.4. The combined organic extract was then dried over sodium sulfate and concentrated to about 10 mL to afford a suspension of Tigecycline. The solid was filtered and washed with heptane. Analysis of the material indicated Form XVII Tigecycline.
2 grams of Tigecycline was dissolved in 440 mL of DDW and pH of the mixture was adjusted at 7.33 and 60 mL of THF were then added. The resulted solution was extracted 6 times with 60 mL portions of dichloromethane while the pH is carefully controlled at 7.2-7.4. The combined organic extract was then dried over sodium sulfate, filtered and the solid was washed with 50 mL of dichloromethane into the initial filtrate. The combined filtrate was concentrated to 30-40 mL and the concentrated was stirred for about half an hour at 0-5° C. A precipitation occurred upon the cooling and the solid was collected and vacuum dried. Analysis of the material before and after the drying indicated Form XVIII of Tigecycline in both cases.
A solution of Tigecycline in dichloromethane was provided between 5 and 10 g/L, and dried over sodium sulfate. Toluene was added to the solution so that the total volume increased to about 1.15 of the original volume. The resulted solution was then partially evaporated so that the volume of the residual mixture was similar to that of the toluene added. The resulted suspension was filtered and the solid thus obtained was dried under vacuum. Analysis of the material before and after the drying indicated Form XIX of Tigecycline in both cases.
A solution of Tigecycline in dichloromethane was provided and dried over sodium sulfate. Di-n-butyl ether was added to the solution so that the total volume increased to about 1.15 of the original volume. The resulting solution was then partially evaporated so that the volume of the residual mixture was similar to that of the di-n-butyl ether added. The resulted suspension was filtered and the cake washed with di-n-butyl ether. Tigecycline thus obtained was identified as Form VIII in both wet and vacuum dried samples. […]

[3] = Exposure to 0% or 100% relative humidity for 7 days at room temperature, crystal form monitored by XRD
Procedure: X-Ray powder diffraction data were obtained by using methods known in the art, using a SCINTAG powder X-Ray diffractometer model X'TRA equipped with a solid-state detector. A Copper radiation of 1.5418 Å was used. A round aluminum sample holder with zero background was used. The scanning parameters included: range: 20 to 40° 2θ; scan mode: continuous scan; step size: 0.05°. The rate for Form XX [FIG. 16] was 3°/min using spin mode while the remaining crystalline forms were 5°/min using spin mode. All peak positions are within ±0.2 degrees two theta. […]
Form I prepared from ethyl acetate (about 80 mg) as described in U.S. Application Ser. No. 60/796,800 was exposed to either 0% or 100% relative humidity for 7 days at room temperature. After the exposure the crystal form was monitored by XRD. […]

[4] = Pressing by a laboratory press, solid analyzed by XRD; conditions: pressure of about 1-2 tons for about 1-3 min (e.g. 2 tons for 1 min)
Procedure: as §1
Tigecycline Form XI was pressed by a laboratory press by pressure of about 1-2 tons for about 1-3 min (for example: 2 tons for 1 min).
Tigecycline Form XVII was pressed by a laboratory press by pressure of about 1-2 tons for about 1-3 min (for example: 2 tons for 1 min).

[5] = Strong grinding by mortar and pestle, solid analyzed by XRD; conditions: about 0.5-1 min
Procedure: as §1
Tigecycline Form XVII was strongly ground by mortal and pestle for about 0.5-1 min.

[6] = 120-150° C. for about 0.5-1 hr (e.g. 140° C. for 1 hr)

## CN(C)c1cc(NC(=O)CNC(C)(C)C)c(O)c2c1C[C@H]1C[C@H]3[C@H](N(C)C)C(O)=C(C(N)=O)C(=O)[C@@]3(O)C(O)=C1C2=O [Form X, Tigecycline]
[1]; 50-150° C. for about 0.5-2 hr (e.g. 60 for 2 hr, 140° C. for 1 hr)
  Solid form by XRD after heating in oven: amorphous form

## CN(C)c1cc(NC(=O)CNC(C)(C)C)c(O)c2c1C[C@H]1C[C@H]3[C@H](N(C)C)C(O)=C(C(N)=O)C(=O)[C@@]3(O)C(O)=C1C2=O [Form XXIV, Tigecycline]
[1]; 110-140° C. for about 0.5-1 hr (e.g. 120 for 0.5 hr, 140° C. for 1 hr)
  Solid form by XRD after heating in oven: amorphous form

## CN(C)c1cc(NC(=O)CNC(C)(C)C)c(O)c2c1C[C@H]1C[C@H]3[C@H](N(C)C)C(O)=C(C(N)=O)C(=O)[C@@]3(O)C(O)=C1C2=O [Form XIX, Tigecycline]
[2]
  Solid form after vacuum drying: Form XIX

## CN(C)c1cc(NC(=O)CNC(C)(C)C)c(O)c2c1C[C@H]1C[C@H]3[C@H](N(C)C)C(O)=C(C(N)=O)C(=O)[C@@]3(O)C(O)=C1C2=O [amorphous Tigecycline, Tigecycline]
[2]
  Solid form by XRD after drying: amorphous

## CN(C)c1cc(NC(=O)CNC(C)(C)C)c(O)c2c1C[C@H]1C[C@H]3[C@H](N(C)C)C(O)=C(C(N)=O)C(=O)[C@@]3(O)C(O)=C1C2=O [Form XI, Tigecycline]
[3]; 0% RH
  Crystal form by XRD after exposure to relative humidity: mixture of Form XI and Form VI
[4]
  Solid form by XRD after pressing: mixture of Form XI and Form VI
[1]; 50-80° C. for about 1-2 hr (e.g. 60 for 2 hr)
  Solid form by XRD after heating in oven: mixture of Form XI and Form VI

## CN(C)c1cc(NC(=O)CNC(C)(C)C)c(O)c2c1C[C@H]1C[C@H]3[C@H](N(C)C)C(O)=C(C(N)=O)C(=O)[C@@]3(O)C(O)=C1C2=O [Form I, Tigecycline]
[3]; 0% RH
  Crystal form by XRD after exposure to relative humidity: New form XXV
[3]; 100% RH
  Crystal form by XRD after exposure to relative humidity: Amorphous
[1]; [6]
  Solid form by XRD after heating in oven: amorphous form

## CN(C)c1cc(NC(=O)CNC(C)(C)C)c(O)c2c1C[C@H]1C[C@H]3[C@H](N(C)C)C(O)=C(C(N)=O)C(=O)[C@@]3(O)C(O)=C1C2=O [Form VII, Tigecycline]
[3]; 0% RH
  Crystal form by XRD after exposure to relative humidity: Form XXIII

## CN(C)c1cc(NC(=O)CNC(C)(C)C)c(O)c2c1C[C@H]1C[C@H]3[C@H](N(C)C)C(O)=C(C(N)=O)C(=O)[C@@]3(O)C(O)=C1C2=O [Form XIII, Tigecycline]
[2]
  Solid form by XRD after drying: Form XIII

## CN(C)c1cc(NC(=O)CNC(C)(C)C)c(O)c2c1C[C@H]1C[C@H]3[C@H](N(C)C)C(O)=C(C(N)=O)C(=O)[C@@]3(O)C(O)=C1C2=O [Form IX, Tigecycline]
[3]; 100% RH
  Crystal form by XRD after exposure to relative humidity: Form XXII

## CN(C)c1cc(NC(=O)CNC(C)(C)C)c(O)c2c1C[C@H]1C[C@H]3[C@H](N(C)C)C(O)=C(C(N)=O)C(=O)[C@@]3(O)C(O)=C1C2=O [Form VIII, Tigecycline]
[2]
  Solid form after vacuum drying: Form VIII

## CN(C)c1cc(NC(=O)CNC(C)(C)C)c(O)c2c1C[C@H]1C[C@H]3[C@H](N(C)C)C(O)=C(C(N)=O)C(=O)[C@@]3(O)C(O)=C1C2=O [Form XII, Tigecycline]
[2]
  Solid form by XRD after drying: Form XII

## CN(C)c1cc(NC(=O)CNC(C)(C)C)c(O)c2c1C[C@H]1C[C@H]3[C@H](N(C)C)C(O)=C(C(N)=O)C(=O)[C@@]3(O)C(O)=C1C2=O [Form XVIII, Tigecycline]
[2]
  Solid form after vacuum drying: Form XVIII
[1]; [6]
  Solid form by XRD after heating in oven: amorphous form

## CN(C)c1cc(NC(=O)CNC(C)(C)C)c(O)c2c1C[C@H]1C[C@H]3[C@H](N(C)C)C(O)=C(C(N)=O)C(=O)[C@@]3(O)C(O)=C1C2=O [Form XVII, Tigecycline]
[5]
  Solid form by XRD after strong grinding: mixture of Form XVII and Form VI
[2]
  Solid form after vacuum drying: Form XVII
[4]
  Solid form by XRD after pressing: mixture of Form XVII and Form VI
[1]; 50-70° C. for about 1-2 hr (e.g. 60 for 2 hr)
  Solid form by XRD after heating in oven: mixture of Form XVII and Form VI
[1]; 90-110° C. for about 0.5-1 hr (e.g. 100 for 0.5 hr)
  Solid form by XRD after heating in oven: Form VI
